Test results published in the supplement of paper PMC10307832.

What was measured:
Experiment in all cases: relative viability (nuclei count vs DMSO), 5 days (fraction); higher = more cells survive
Imatinib + Luminespib = compound: Cc1ccc(NC(=O)c2ccc(CN3CCN(C)CC3)cc2)cc1Nc1nccc(-c2cccnc2)n1 [Imatinib] + CCNC(=O)c1noc(-c2cc(C(C)C)c(O)cc2O)c1-c1ccc(CN2CCOCC2)cc1 [Luminespib] (partner 0.01 µM)
Method in brief: (§1)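 One day after seeding in 1536-well plates, lung cancer cell lines were dosed by pin tool. Dosing was either single-drug or a fixed anchor-drug dose plus five library-drug doses (not always all listed) in √10 steps. After 5 days, nuclei were stained in one fix-and-stain step and counted on 4× images, and relative viability is the nuclei count of treated wells over that of vehicle wells, given as the median of duplicate plates.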

Imatinib + OSI-027 = compound: Cc1ccc(NC(=O)c2ccc(CN3CCN(C)CC3)cc2)cc1Nc1nccc(-c2cccnc2)n1 [Imatinib] + COc1cccc2cc(-c3nc([C@H]4CC[C@H](C(=O)O)CC4)n4ncnc(N)c34)[nH]c12 [OSI-027] (partner 0.5 µM)
Method in brief: as §1

Imatinib + Decitabine = compound: Cc1ccc(NC(=O)c2ccc(CN3CCN(C)CC3)cc2)cc1Nc1nccc(-c2cccnc2)n1 [Imatinib] + Nc1ncn([C@H]2C[C@H](O)[C@@H](CO)O2)c(=O)n1 [Decitabine] (partner 2 µM)
Method in brief: as §1

Imatinib + AZD7762 = compound: Cc1ccc(NC(=O)c2ccc(CN3CCN(C)CC3)cc2)cc1Nc1nccc(-c2cccnc2)n1 [Imatinib] + NC(=O)Nc1cc(-c2cccc(F)c2)sc1C(=O)N[C@H]1CCCNC1 [AZD7762] (partner 0.2 µM)
Method in brief: as §1

Cell Line	relative viability (Imatinib + Luminespib; first compound 0.02 µM)	relative viability (Imatinib + Luminespib; first compound 0.06325 µM)	relative viability (Imatinib + Luminespib; first compound 0.2 µM)	relative viability (Imatinib + Luminespib; first compound 0.6325 µM)	relative viability (Imatinib + Luminespib; first compound 2 µM)	relative viability (Imatinib + OSI-027; first compound 0.02 µM)	relative viability (Imatinib + OSI-027; first compound 0.06325 µM)	relative viability (Imatinib + OSI-027; first compound 0.2 µM)	relative viability (Imatinib + OSI-027; first compound 0.6325 µM)	relative viability (Imatinib + OSI-027; first compound 2 µM)	relative viability (Imatinib + Decitabine; first compound 0.02 µM)	relative viability (Imatinib + Decitabine; first compound 0.06325 µM)	relative viability (Imatinib + Decitabine; first compound 0.2 µM)	relative viability (Imatinib + Decitabine; first compound 0.6325 µM)	relative viability (Imatinib + Decitabine; first compound 2 µM)	relative viability (Imatinib + AZD7762; first compound 0.02 µM)	relative viability (Imatinib + AZD7762; first compound 0.06325 µM)	relative viability (Imatinib + AZD7762; first compound 0.6325 µM)	relative viability (Imatinib + AZD7762; first compound 2 µM)	relative viability (Imatinib + AZD7762; first compound 0.2 µM)
NCI-H650	0.887	0.67	0.641	0.796	0.769	0.557	0.496	0.51	0.544	0.459	0.299	0.36	0.291	0.313	0.262	1.11	0.882	1.03	0.979	
NCI-H2009	1.15		0.888	1.08	0.934	0.666		0.672	0.623	0.582	0.434	0.346	0.346	0.425	0.363					
EKVX		0.712	0.817	0.926	0.847		0.388	0.65	0.551	0.868	0.325		0.375	0.352				0.723		0.617
NCI-H596	0.984	1.29	1.01	0.798	0.91	0.775	0.669	0.689	0.626	0.61	1.12	1.01	1.17		0.971	1.21	1.03	0.948	1.13	
NCI-H3122	0.0854	0.0818	0.112	0.126	0.076	1.11	0.831	1.09		1.1	0.44	0.467	0.441	0.439	0.375			0.926	1.05	1.07
NCI-H2085	0.548	0.628	0.421	0.463	0.541	0.823	0.432	0.717	0.724	0.588	0.529	0.556	0.513	0.61	0.527	1.03	0.87	1.14	0.879	
NCI-H441	0.37	0.326	0.448	0.304	0.309	0.675	0.561	0.632	0.581	0.563	0.252	0.234	0.249	0.26	0.268	1.34	1.34	1.1	1.08	1.17
NCI-H1395	0.79	0.697	0.653	0.737	0.676	0.63	0.443	0.705	0.581	0.606	0.754		0.656	0.678	0.69	0.369		0.376	0.393	0.343
NCI-H1944	0.831	0.655		0.665	0.787	0.423	0.267	0.403	0.425	0.381	0.427	0.394	0.474	0.401	0.444	0.628	0.556	0.37	0.423	0.452
NCI-H1793	0.253		0.164	0.167	0.189	0.298		0.263	0.249	0.204	0.477		0.522	0.447	0.445	0.463		0.286	0.197	0.279
SK-MES-1	0.906		0.804	0.714	0.873	0.717	0.407	0.642	0.521	0.597	0.379	0.412	0.413	0.417	0.334					
NCI-H1651	0.926	0.829	0.947	0.749	0.83		0.848	0.727	0.739	0.665	0.56	0.297	0.643	0.591	0.599	0.543	0.267	0.468	0.403	0.488
LCLC-97TM1	0.89		0.864	0.889	0.813	0.562		0.577	0.542	0.444	0.208		0.253	0.216	0.226	0.28		0.258	0.177	0.238
LXF-289	0.805	0.5	0.615	0.566	0.672	0.791	0.556	0.814	0.754	0.724	0.387		0.407	0.391	0.405	1.13		1.04	1.09	1.25
201T	1.09		1.11	0.96	1.03	0.865	0.798	0.762	0.761		0.855	0.8	0.841	0.852	0.843	0.72	0.399	0.541	0.517	0.589
